Experimental data reported in patent US10738028B2, “Spiro three-membered ring, spiro five-membered ring peptide deformylase inhibitor and use thereof in antibacteria and anti-tumor” (priority 2016, dated 2020).
Converted amounts (≈) assume the structure as drawn.

Legend:
Assay type in all cases: cell-based
[1] = tested on: HCT-116 colorectal cancer cell line; test: CCK-8 proliferation inhibition; conditions: Homo sapiens, HCT-116, 72 h, concentration of 30 μM; 72 hours; CCK-8; read-out: HCT116 inhibition rate/%
Method in brief: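 Cells seeded at 2000 cells/well, cultured overnight at 37 °C, 5% CO2, then exposed to compound (DMSO; control 1‰ DMSO) for 72 h in McCoy's 5A with 10% newborn bovine serum. Viability read with 1:10 diluted CCK-8.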

[2] = tested on: methicillin-resistant Staphylococcus aureus (MRSA); test: MIC, two-fold agar dilution (CLSI), clinical isolates
Source text: (§1) 1. The invention adopts the two-fold agar dilution method recommended by the operating procedure of antimicrobial susceptibility testing set by American Clinical and Laboratory Standards Institute (CLSI) to determine the Minimum Inhibitory Concentration (MIC) of the test samples against the tested strains.

[3] = tested on: Enterococcus faecalis (EFA); test: as above
Source text: as §1

[4] = tested on: methicillin-resistant Staphylococcus epidermidis (MRSE); test: as above
Source text: as §1

[5] = tested on: methicillin-sensitive Staphylococcus aureus (MSSA); test: as above
Source text: as §1

[6] = tested on: Moraxella catarrhalis (BCA); test: as above
Source text: as §1

[7] = tested on: Streptococcus pneoumoniae (SPN); test: as above
Source text: as §1

[8] = tested on: Escherichia coli (including ESBLs, non-ESBLs); test: as above
Source text: as §1

[9] = tested on: Enterococcus faecium (EFM); test: as above
Source text: as §1

[10] = tested on: methicillin-sensitive Staphylococcus epidermidis (MSSE); test: as above
Source text: as §1

## CCCC[C@H](CN(O)C=O)C(=O)N1CC2(CC2)C[C@H]1c1nc2ccccc2n1CCN(C)C [Example 24]
[1]
  inhibition at 30 µM: 2%
[2]; strain MRSA 15-1
  MIC (anti-bacterial activity): 8 µg/mL (≈ 17.6 µM)
[2]; strain MRSA 15-2
  MIC (anti-bacterial activity): 32 µg/mL (≈ 70.2 µM)
[2]; strain MRSA 15-3
  MIC (anti-bacterial activity): 32 µg/mL (≈ 70.2 µM)
[2]; strain MRSA 15-4
  MIC (anti-bacterial activity): 8 µg/mL (≈ 17.6 µM)
[3]; strain EFA 15-1
  MIC (anti-bacterial activity): 32 µg/mL (≈ 70.2 µM)
[3]; strain EFA 15-2
  MIC (anti-bacterial activity): 32 µg/mL (≈ 70.2 µM)
[3]; strain EFA 15-3
  MIC (anti-bacterial activity): 8 µg/mL (≈ 17.6 µM)
[3]; strain EFA 15-4
  MIC (anti-bacterial activity): 32 µg/mL (≈ 70.2 µM)
[3]; strain EFA 15-5
  MIC (anti-bacterial activity): 32 µg/mL (≈ 70.2 µM)
[3]; strain EFA 15-6
  MIC (anti-bacterial activity): 32 µg/mL (≈ 70.2 µM)
[3]; strain EFA 15-9
  MIC (anti-bacterial activity): 32 µg/mL (≈ 70.2 µM)
[4]; strain MRSE 15-1
  MIC (anti-bacterial activity): 8 µg/mL (≈ 17.6 µM)
[4]; strain MRSE 15-2
  MIC (anti-bacterial activity): 8 µg/mL (≈ 17.6 µM)
[4]; strain MRSE 15-3
  MIC (anti-bacterial activity): 8 µg/mL (≈ 17.6 µM)
[4]; strain MRSE 15-7
  MIC (anti-bacterial activity): 8 µg/mL (≈ 17.6 µM)
[5]; strain MSSA 15-3
  MIC (anti-bacterial activity): 8 µg/mL (≈ 17.6 µM)
[5]; strain MSSA 15-4
  MIC (anti-bacterial activity): 8 µg/mL (≈ 17.6 µM)
[5]; strain MSSA 15-5
  MIC (anti-bacterial activity): 8 µg/mL (≈ 17.6 µM)
[5]; strain MSSA 15-6
  MIC (anti-bacterial activity): 8 µg/mL (≈ 17.6 µM)
[6]; strain BCA 14-1
  MIC (anti-bacterial activity): 32 µg/mL (≈ 70.2 µM)
[6]; strain BCA 14-4
  MIC (anti-bacterial activity): 16 µg/mL (≈ 35.1 µM)
[6]; strain BCA 14-5
  MIC (anti-bacterial activity): 8 µg/mL (≈ 17.6 µM)
[6]; strain BCA 14-6
  MIC (anti-bacterial activity): 32 µg/mL (≈ 70.2 µM)
[6]; strain BCA 14-7
  MIC (anti-bacterial activity): 8 µg/mL (≈ 17.6 µM)
[6]; strain BCA 14-8
  MIC (anti-bacterial activity): 8 µg/mL (≈ 17.6 µM)
[6]; strain BCA 14-10
  MIC (anti-bacterial activity): 8 µg/mL (≈ 17.6 µM)
[7]; strain SPN 16-2
  MIC (anti-bacterial activity): 4 µg/mL (≈ 8.78 µM)
[7]; strain SPN 16-4
  MIC (anti-bacterial activity): 1 µg/mL (≈ 2.19 µM)
[8]; strain ECO+ 15-1
  MIC (anti-bacterial activity): 8 µg/mL (≈ 17.6 µM)
[8]; strain ECO+ 15-2
  MIC (anti-bacterial activity): 16 µg/mL (≈ 35.1 µM)
[8]; strain ECO+ 15-3
  MIC (anti-bacterial activity): 16 µg/mL (≈ 35.1 µM)
[8]; strain ECO+ 15-4
  MIC (anti-bacterial activity): 16 µg/mL (≈ 35.1 µM)
[8]; strain ECO− 15-1
  MIC (anti-bacterial activity): 8 µg/mL (≈ 17.6 µM)
[8]; strain ECO− 15-2
  MIC (anti-bacterial activity): 16 µg/mL (≈ 35.1 µM)
[8]; strain ECO− 15-3
  MIC (anti-bacterial activity): 32 µg/mL (≈ 70.2 µM)
[8]; strain ECO− 15-4
  MIC (anti-bacterial activity): 16 µg/mL (≈ 35.1 µM)
[9]; strain EFM 15-1
  MIC (anti-bacterial activity): 4 µg/mL (≈ 8.78 µM)
[9]; strain EFM 15-2
  MIC (anti-bacterial activity): 8 µg/mL (≈ 17.6 µM)
[9]; strain EFM 15-3
  MIC (anti-bacterial activity): 2 µg/mL (≈ 4.39 µM)
[9]; strain EFM 15-4
  MIC (anti-bacterial activity): 8 µg/mL (≈ 17.6 µM)
[9]; strain EFM 15-5
  MIC (anti-bacterial activity): 4 µg/mL (≈ 8.78 µM)
[9]; strain EFM 15-6
  MIC (anti-bacterial activity): 8 µg/mL (≈ 17.6 µM)
[10]; strain MSSE 15-3
  MIC (anti-bacterial activity): 8 µg/mL (≈ 17.6 µM)
[10]; strain MSSE 15-4
  MIC (anti-bacterial activity): 2 µg/mL (≈ 4.39 µM)
[10]; strain MSSE 15-5
  MIC (anti-bacterial activity): 2 µg/mL (≈ 4.39 µM)
[10]; strain MSSE 15-6
  MIC (anti-bacterial activity): 2 µg/mL (≈ 4.39 µM)

## O=CN(O)C[C@@H](CC1CCCC1)C(=O)N1CC2(CC2)C[C@H]1C(=O)Nc1cnccn1 [Example 26]
[1]
  inhibition at 30 µM: 18%
[2]; strain MRSA 15-1
  MIC (anti-bacterial activity): 0.25 µg/mL (≈ 0.602 µM)
[2]; strain MRSA 15-2
  MIC (anti-bacterial activity): 0.25 µg/mL (≈ 0.602 µM)
[2]; strain MRSA 15-3
  MIC (anti-bacterial activity): 0.25 µg/mL (≈ 0.602 µM)
[2]; strain MRSA 15-4
  MIC (anti-bacterial activity): 0.25 µg/mL (≈ 0.602 µM)
[3]; strain EFA 15-1
  MIC (anti-bacterial activity): 2 µg/mL (≈ 4.81 µM)
[3]; strain EFA 15-2
  MIC (anti-bacterial activity): 2 µg/mL (≈ 4.81 µM)
[3]; strain EFA 15-3
  MIC (anti-bacterial activity): 0.5 µg/mL (≈ 1.2 µM)
[3]; strain EFA 15-4
  MIC (anti-bacterial activity): 2 µg/mL (≈ 4.81 µM)
[3]; strain EFA 15-5
  MIC (anti-bacterial activity): 2 µg/mL (≈ 4.81 µM)
[3]; strain EFA 15-6
  MIC (anti-bacterial activity): 2 µg/mL (≈ 4.81 µM)
[3]; strain EFA 15-9
  MIC (anti-bacterial activity): 2 µg/mL (≈ 4.81 µM)
[4]; strain MRSE 15-1
  MIC (anti-bacterial activity): 0.125 µg/mL (≈ 0.301 µM)
[4]; strain MRSE 15-2
  MIC (anti-bacterial activity): 0.5 µg/mL (≈ 1.2 µM)
[4]; strain MRSE 15-3
  MIC (anti-bacterial activity): 0.5 µg/mL (≈ 1.2 µM)
[4]; strain MRSE 15-7
  MIC (anti-bacterial activity): 0.5 µg/mL (≈ 1.2 µM)
[5]; strain MSSA 15-3
  MIC (anti-bacterial activity): 0.25 µg/mL (≈ 0.602 µM)
[5]; strain MSSA 15-4
  MIC (anti-bacterial activity): 0.25 µg/mL (≈ 0.602 µM)
[5]; strain MSSA 15-5
  MIC (anti-bacterial activity): 0.25 µg/mL (≈ 0.602 µM)
[5]; strain MSSA 15-6
  MIC (anti-bacterial activity): 0.25 µg/mL (≈ 0.602 µM)
[6]; strain BCA 14-1
  MIC (anti-bacterial activity): 0.5 µg/mL (≈ 1.2 µM)
[6]; strain BCA 14-4
  MIC (anti-bacterial activity): 0.5 µg/mL (≈ 1.2 µM)
[6]; strain BCA 14-5
  MIC (anti-bacterial activity): 0.25 µg/mL (≈ 0.602 µM)
[6]; strain BCA 14-6
  MIC (anti-bacterial activity): 0.5 µg/mL (≈ 1.2 µM)
[6]; strain BCA 14-7
  MIC (anti-bacterial activity): 0.25 µg/mL (≈ 0.602 µM)
[6]; strain BCA 14-8
  MIC (anti-bacterial activity): 0.5 µg/mL (≈ 1.2 µM)
[6]; strain BCA 14-10
  MIC (anti-bacterial activity): 0.25 µg/mL (≈ 0.602 µM)
[7]; strain SPN 16-2
  MIC (anti-bacterial activity): 0.25 µg/mL (≈ 0.602 µM)
[7]; strain SPN 16-4
  MIC (anti-bacterial activity): 2 µg/mL (≈ 4.81 µM)
[8]; strain ECO+ 15-1
  MIC (anti-bacterial activity): 32 µg/mL (≈ 77 µM)
[8]; strain ECO+ 15-2
  MIC (anti-bacterial activity): 32 µg/mL (≈ 77 µM)
[8]; strain ECO+ 15-3
  MIC (anti-bacterial activity): 32 µg/mL (≈ 77 µM)
[8]; strain ECO+ 15-4
  MIC (anti-bacterial activity): 32 µg/mL (≈ 77 µM)
[8]; strain ECO− 15-1
  MIC (anti-bacterial activity): 32 µg/mL (≈ 77 µM)
[8]; strain ECO− 15-2
  MIC (anti-bacterial activity): 32 µg/mL (≈ 77 µM)
[8]; strain ECO− 15-3
  MIC (anti-bacterial activity): 32 µg/mL (≈ 77 µM)
[8]; strain ECO− 15-4
  MIC (anti-bacterial activity): 32 µg/mL (≈ 77 µM)
[9]; strain EFM 15-1
  MIC (anti-bacterial activity): 0.5 µg/mL (≈ 1.2 µM)
[9]; strain EFM 15-2
  MIC (anti-bacterial activity): 0.5 µg/mL (≈ 1.2 µM)
[9]; strain EFM 15-3
  MIC (anti-bacterial activity): 0.25 µg/mL (≈ 0.602 µM)
[9]; strain EFM 15-4
  MIC (anti-bacterial activity): 0.5 µg/mL (≈ 1.2 µM)
[9]; strain EFM 15-5
  MIC (anti-bacterial activity): 0.25 µg/mL (≈ 0.602 µM)
[9]; strain EFM 15-6
  MIC (anti-bacterial activity): 0.5 µg/mL (≈ 1.2 µM)
[10]; strain MSSE 15-3
  MIC (anti-bacterial activity): 0.125 µg/mL (≈ 0.301 µM)
[10]; strain MSSE 15-4
  MIC (anti-bacterial activity): 0.5 µg/mL (≈ 1.2 µM)
[10]; strain MSSE 15-5
  MIC (anti-bacterial activity): 0.5 µg/mL (≈ 1.2 µM)
[10]; strain MSSE 15-6
  MIC (anti-bacterial activity): 0.5 µg/mL (≈ 1.2 µM)
